Results taken from patent US12637435B2, “Nitrogen-containing heterocyclic compound or salt thereof, use thereof, and intermediate thereof” (FUJIFILM Corporation, priority 2020, dated 2026).

Key:
HL60 subcutaneous tumor = assay: In vivo drug efficacy test in cancer-bearing mouse model with subcutaneous transplantation of HL60; conditions: HL60 subcutaneous xenograft, female NOD/scid mice, oral 2.5 to 10 mg/kg once a day for 10 to 12 days
Excerpt: (Drug Efficacy Test in Cancer-Bearing Mouse Model with Subcutaneous Transplantation of HL60)
The human acute myeloid leukemia cell line HL60 (available from JCRB) was suspended in a mixture of RPMI-1640 culture medium and Matrigel (available from Corning Inc.), and then subcutaneously transplanted into 6-week-old female NOD/scid mice (available from CLEA Japan, Inc.). The test compound was dispersed in a solvent (0.5% aqueous methylcellulose solution), and from the time when tumor engraftment was visually confirmed, the test compound was orally administered to mice at a dose of 2.5 to 10 mg/kg once a day for 10 to 12 days. A solvent administration group to which a 0.5% aqueous methylcellulose solution was administered was provided as a negative control. The tumor diameter was measured over time and the tumor volume was calculated. The tumor volume was calculated by measuring the major axis and the minor axis of the tumor and using the following expression. Tumor volume (mm^3)=[major axis (mm)×minor axis (mm)×minor axis (mm)]/2
T/C (%) was calculated from the average tumor volume of each group by the following expression, and the drug efficacy was evaluated. T/C (%)=(average tumor volume of drug-administered group)/(average tumor volume of solvent-administered group)×100%

recombinant human DHODH = biological target: T1, recombinant human DHODH (Homo sapiens, UniProt Q02127); assay: DHODH enzyme reaction inhibition test (DCIP-coupled assay); assay type: biochemical; conditions: recombinant human DHODH 0.175 μg/mL, DCIP absorbance 600 nm, 50 minutes, pH 8.0; read-out: Enzyme reaction inhibitory effect (IC50)
T1 construct: DHODH, 31-395aa, Human, His tag, E. coli, ATGP1615; His tag; purchased ATGen Co. Ltd. ATGP1615; host or cells: E. coli
T1 sequence (Q02127 31-395): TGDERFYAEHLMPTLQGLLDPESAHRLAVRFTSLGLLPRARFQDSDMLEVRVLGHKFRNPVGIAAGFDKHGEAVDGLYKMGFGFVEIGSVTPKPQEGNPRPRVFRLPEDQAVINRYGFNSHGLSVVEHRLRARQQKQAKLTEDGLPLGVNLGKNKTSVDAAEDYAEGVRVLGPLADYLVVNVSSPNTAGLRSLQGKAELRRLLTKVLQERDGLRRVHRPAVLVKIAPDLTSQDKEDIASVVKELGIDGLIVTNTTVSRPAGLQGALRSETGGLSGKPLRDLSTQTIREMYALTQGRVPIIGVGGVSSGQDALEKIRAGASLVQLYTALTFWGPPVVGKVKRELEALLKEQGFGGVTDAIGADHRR
Procedure: The DHODH enzyme assay was carried out with reference to “Benjamin Bader, Wolfgang Knecht, Markus Fries, and Monika Loffler, Expression, Purification, and Characterization of Histidine-Tagged Rat and Human Flavoenzyme Dihydroorotate Dehydrogenase, Protein Expression and Purification, 1998, 13, 414-422.”
The DHODH activity was evaluated using an enzyme assay system that is coupled with an assay in which a blue coloring agent 2,6-dichlorophenolindophenol (DCIP, available from MP Biomedicals, LLC, MP150118) is quenched. Purified recombinant human DHODH (DHODH, 31-395aa, Human, His tag, E. coli, ATGP1615) was purchased from ATGen Co. Ltd. The enzyme assay was carried out in a 384-well plate using a buffer solution containing 100 mmol/L Hepes (available from Dojindo Laboratories, 342-01375), 400 mmol/L NaCl (available from FUJIFILM Wako Pure Chemical Corporation, 191-01665), 10% Glycerol (available from FUJIFILM Wako Pure Chemical Corporation, 075-00616), 0.05% Triton X-100 (available from Sigma-Aldrich Co., LLC, T8787-100ML), 0.2 mmol/L Ubiquinone-10 (available from FUJIFILM Wako Pure Chemical Corporation, 216-00761), 0.1 mmol/L DHO (L-dihydroorotic acid, available from Sigma-Aldrich Co., LLC, D7128), 0.5% DMSO (dimethylsulfoxide, available from FUJIFILM Wako Pure Chemical Corporation, 047-29353), 0.175 μg/mL DHODH, and 0.12 mmol/L DCIP and having a pH adjusted to 8.0 by adding 5 mol/L potassium hydroxide (available from FUJIFILM Wako Pure Chemical Corporation, 168-21815). A test compound with a predetermined concentration was added using Biomek NX (available from Beckman Coulter Inc.), and the enzyme reaction was started by adding the substrate. The enzyme activity was assessed by measuring the decrease in DCIP absorbance (600 nm) for 50 minutes using an EnVision plate-reading spectrophotometer (available from PerkinElmer, Inc.).
The enzyme reaction inhibition rate at each test compound concentration was determined, and the 50% enzyme reaction inhibition concentration [IC50 (nmol/L)] was calculated using XLfit. Enzyme reaction inhibition rate (%)=(amount of luminescence in test compound-added well)/(amount of luminescence in DMSO-added well)×100
The abbreviations in the table have the following meanings. • A: IC50 value<10 nmol/L • B: 10 nmol/L≤IC50 value<100 nmol/L • C: 100 nmol/L≤IC50 value

[1] = tested on: human myeloid leukemia cell line HL60; assay: Cell growth test, HL60 (CellTiter-Glo); assay type: cell-based; conditions: HL-60, 72 h, HL60 cells, 3 days, CellTiter-Glo luminescence, read-out: Cell growth inhibitory effect (GI50)
Procedure: The cell growth test was carried out using the human myeloid leukemia cell line HL60 (available from ATCC, CRL-240). As a culture medium of HL60 cells, RPMI 1640 (available from FUJIFILM Wako Pure Chemical Corporation, 189-02025) supplemented with 10% fetal bovine serum (available from Thermo Fisher Scientific, Inc., 10437-028), and 1% penicillin-streptomycin (10,000 U/mL, available from Thermo Fisher Scientific, Inc., 15140-122) was used. HL60 cells were seeded on a 384-well plate (available from Corning Inc., 4588) at a cell density of 1×10^3 cells/20 μL/well. After culturing overnight, 5 μL of the test compound having a predetermined concentration was added, and 3 days later, 25 μL of CellTiter-Glo (registered trademark) Luminescent Cell Viability Assay (available from Promega Corporation, G7573) was added, and then the amount of luminescence was measured using an EnVision plate reader (available from PerkinElmer, Inc.). Since the amount of luminescence is proportional to the intracellular concentration of adenosine triphosphate (ATP), the amount of luminescence was used as an indicator of the number of viable cells. The growth inhibitory concentration for each test compound concentration was calculated by the following expression.
The growth inhibition rate at each test compound concentration was determined, and the 50% growth inhibitory concentration [GI50 (nmol/L)] was calculated using XLfit. Growth inhibition rate (%)=(amount of luminescence in test compound-added well)/(amount of luminescence in DMSO-added well)×100
The abbreviations in the table have the following meanings. • A: GI50 value<100 nmol/L • B: 100 nmol/L≤GI50 value<1,000 nmol/L • C: 1,000 nmol/L≤GI50 value

Row | SMILES | tumor growth inhibition rate (T/C from tumor volume) (HL60 subcutaneous tumor) | IC50 (recombinant human DHODH) [nM] | GI50 [1] [nM]
1 | CS(=O)(=O)NC(=O)c1nc(C2CC2)cnc1Nc1cccc(C2CCOCC2)c1OCC(F)(F)F [Example 3-30] | excellent tumor growth inhibition rate | < 10 | < 100
2 | N#Cc1ccc(-c2cccc(Nc3ncc(C4CC4)nc3C(=O)NS(N)(=O)=O)c2OCC(F)(F)F)cc1 [Example 3-41] | excellent tumor growth inhibition rate | < 10 | < 100
3 | CS(=O)(=O)NC(=O)c1nc(C2CC2)cnc1Nc1cccc(C2=CCOCC2)c1OCC(F)(F)F [Example 1-2, 6-cyclopropyl-3-((3-(3,6-dihydro-2H-pyran-4-yl)-2-(2,2,2-trifluoroethoxy)phenyl)amino)-N-(methylsulfonyl)pyrazine-2-carboxamide] | excellent tumor growth inhibition rate | < 10 | < 100
4 | O=C(O)c1cc(C2CC2)cnc1Nc1cccc(C2=CCOCC2)c1OCC(F)(F)F [Example 2-5] |  | < 10 | < 100
5 | N#CNC(=O)c1nc(C2CC2)cnc1Nc1cc(F)cc(C2=CCOCC2)c1OCC(F)(F)F [Example 3-38] |  | < 10 | < 100
6 | O=C(O)c1cc(C2CC2)cnc1Nc1cc(F)cc(C2CCOCC2)c1OCC(F)(F)F [Example 2-8] |  | < 10 | < 100
7 | C[C@H](Oc1c(Nc2ccc(C3CC3)cc2C(=O)NS(C)(=O)=O)cncc1C1=CCOCC1)C(F)(F)F [Example 3-25] |  | 10 to 100 | 100 to 1000
8 | NCc1nc(C2CC2)cnc1Nc1cccc(C2=CCOCC2)c1OCC(F)(F)F [Example 1-17, 3-(aminomethyl)-5-cyclopropyl-N-(3-(3,6-dihydro-2H-pyran-4-yl)-2-(2,2,2-trifluoroethoxy)phenyl)pyrazine-2-amine] |  | ≥ 100 | ≥ 1000
9 | CS(=O)(=O)NC(=O)c1nc(C2CC2)cnc1Nc1cccc(C2CCOCC2)c1OC(F)F [Example 3-49] |  | < 10 | < 100
10 | N#CNC(=O)c1nc(C2CC2)cnc1Nc1cccc(C2CCOCC2)c1OCC(F)(F)F [Example 3-29] |  | < 10 | < 100
11 | COS(=O)(=O)NC(=O)c1nc(C2CC2)cnc1Nc1cccc(C2=CCOCC2)c1OCC(F)(F)F [Example 3-19] |  | 10 to 100 | 100 to 1000
12 | CONC(=O)c1nc(C2CC2)cnc1Nc1cccc(C2=CCOCC2)c1OCC(F)(F)F [Example 3-5] |  | < 10 | < 100
13 | N#Cc1ccc(-c2cccc(Nc3ncc(C4CC4)nc3C(=O)O)c2OCC(F)(F)F)cc1 [Example 2-4] |  | < 10 | < 100
14 | C[C@H](Oc1c(Nc2ncc(C3CC3)nc2C(=O)NS(N)(=O)=O)cccc1C1=CCOCC1)C(F)(F)F [Example 3-27] |  | < 10 | < 100
15 | NS(=O)(=O)NC(=O)c1cc(C2CC2)cnc1Nc1cccc(C2CCOCC2)c1OCC(F)(F)F [Example 3-35] |  | < 10 | < 100
16 | N#CNC(=O)c1cc(C2CC2)ccc1Nc1cncc(C2=CCOCC2)c1OCC(F)(F)F [Example 3-2] |  | < 10 | ≥ 1000
17 | N#CNC(=O)c1cc(C2CC2)cnc1Nc1cccc(C2CCOCC2)c1OCC(F)(F)F [Example 3-6] |  | < 10 | < 100
18 | CCc1cnc(Nc2cccc(C3=CCOCC3)c2OCC(F)(F)F)c(C(=O)NS(C)(=O)=O)n1 [Example 3-66] |  | < 10 | 100 to 1000
